“And” between values parts separate entries of the source, which are not always exact repeats. Identical values can stand only once.
Details: 101.33 kPa, Liquid; for electrical conductivity: Parallel Plate Conductive Cell; for kinematic viscosity: Capillary tube (Ostwald / Ubbelohde) method

CCCCCC[n+]1ccn(C)c1.O=S(=O)([N-]S(=O)(=O)C(F)(F)F)C(F)(F)F
Details	electrical conductivity	kinematic viscosity [m2/s]
278.15 K	0.0783 S/m	–
283.15 K	0.104 S/m	–
288.15 K	0.136 S/m	–
293.15 K	0.173 S/m	–
298.15 K	0.217 S/m and 0.218 S/m	5.06e-05
303.15 K	0.268 S/m	4.04e-05
308.15 K	0.326 S/m	–
313.15 K	0.391 S/m	–
313.16 K	–	2.7e-05
323.15 K	0.543 S/m	1.9e-05
333.15 K	0.726 S/m	1.39e-05
343.15 K	–	1.06e-05

From the NIST ThermoML archive (doi:10.1007/s10765-009-0584-4)
